Data reported in paper PMC12507958, “Modification of human metallothioneins by garlic organosulfur compounds, allicin and ajoene: direct effect on zinc homeostasis with relevance to immune regulation” (Biometals, 2025).

Legend:
Format in all cases: binding
MT2 [1] = target: T1, MT2 (Homo sapiens, UniProt P02795); assay: Zn(II) release followed with PAR; adducts by ESI-MS and top-down MS; details: 1 uM Zn(II)-loaded MT2, 80 uM ajoene, 100 uM PAR, 50 mM HEPES, 100 mM NaCl, pH 7.4, 25 °C; covalent (Cys within residues 29-53)
T1 construct: gene MT2A; full-length recombinant, intein/chitin tag (pTYB21) cleaved by DTT, from E. coli BL21(DE3)pLysS; Zn7-loaded (Zn7MT2)
T1 sequence (P02795 whole entry, the tested form may be a part): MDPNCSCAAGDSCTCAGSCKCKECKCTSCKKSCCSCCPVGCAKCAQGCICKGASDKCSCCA

MT1a = target: T2, MT1a (Homo sapiens, UniProt P04731); assay: Zn(II) release followed with PAR at […] nm; details: 1 uM Zn(II)-loaded MT, 80 uM allicin, 200 uM PAR, 50 mM HEPES, 100 mM NaCl, pH 7.4, 25 °C; covalent (Cys S-thioallylation)
T2 construct: full-length recombinant, intein/chitin tag (pTYB21) cleaved by DTT, from E. coli BL21(DE3)pLysS; Zn7-loaded
T2 sequence (P04731 whole entry): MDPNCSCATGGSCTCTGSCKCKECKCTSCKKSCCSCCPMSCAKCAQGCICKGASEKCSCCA

MT3 = target: T3, MT3 (Homo sapiens, UniProt P25713); assay: Zn(II) release followed with PAR at […] nm; details: 1 uM Zn(II)-loaded MT, 80 uM allicin, 200 uM PAR, 50 mM HEPES, 100 mM NaCl, pH 7.4, 25 °C; covalent (Cys S-thioallylation)
T3 construct: full-length recombinant, intein/chitin tag (pTYB21) cleaved by DTT, from E. coli BL21(DE3)pLysS; Zn7-loaded
T3 sequence (P25713 whole entry): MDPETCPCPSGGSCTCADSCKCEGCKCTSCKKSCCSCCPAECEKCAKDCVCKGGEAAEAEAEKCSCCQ

MT4 = target: T4, MT4 (Homo sapiens, UniProt P47944); assay: Zn(II) release followed with PAR at […] nm; details: 1 uM Zn(II)-loaded MT, 80 uM allicin, 200 uM PAR, 50 mM HEPES, 100 mM NaCl, pH 7.4, 25 °C; covalent (Cys S-thioallylation)
T4 construct: full-length recombinant, intein/chitin tag (pTYB21) cleaved by DTT, from E. coli BL21(DE3)pLysS; Zn7-loaded
T4 sequence (P47944 whole entry): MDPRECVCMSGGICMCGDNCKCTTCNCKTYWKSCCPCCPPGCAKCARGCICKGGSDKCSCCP

MT2 [2] = target: T1, MT2; assay: Zn(II) release followed with PAR; adducts by ESI-MS and top-down MS; details: 1 uM Zn(II)-loaded MT2, 80 uM allicin, 100 uM PAR, 50 mM HEPES, 100 mM NaCl, pH 7.4; covalent (S-thioallylation, Cys within residues 19-30)

Row | Zn(II) mol. eq. dissociated after 60 min (MT2 [1]) | Zn(II) mol. eq. dissociated after 60 min (MT1a) | Zn(II) mol. eq. dissociated after 60 min (MT3) | Zn(II) mol. eq. dissociated after 60 min (MT4) | Zn(II) mol. eq. dissociated after 1 h (MT2 [2]) | SMILES
1 | almost 6 | – | – | – | – | C=CCSSC=CC[S+]([O-])CC=C (centres unmarked) [ajoene]
2 | – | 5 mol. eq. | 5.2 mol. eq. | 2.8 mol. eq. | 5.3 mol. eq. | C=CCS[S+]([O-])CC=C (centres unmarked) [allicin]
